Source: publication PMC5444469, “Involvement of three putative glucosyltransferases from the UGT72 family in flavonol glucoside/rhamnoside biosynthesis in Lotus japonicus seeds” (Journal of Experimental Botany, 2016)

Assays:
Conditions in all cases: 4 mM UDP-glucose, pH 7.5, 30 °C, 10 mM DTT
UGT72AD1 = tested on: T1, UGT72AD1; test: HPLC glucosylation assay; assay type: biochemical, Lotus japonicus
T1 construct: full-length ORF cloned from leaf cDNA; MBP fusion (pMAL-c2x), E. coli Novablue, maltose-resin purified

purified protein = substrate: O=c1c(O)c(-c2cc(O)c(O)c(O)c2)oc2cc(O)cc(O)c12; test: purified protein
HPLC glucosylation assay [1] = substrate: O=c1c(O)c(-c2ccc(O)c(O)c2)oc2cc(O)cc(O)c12; test: HPLC glucosylation assay; assay type: biochemical, Lotus japonicus
Description: (§1) HPLC glucosylation assay on UGT72Z2 | UGT72Z2 ...

HPLC glucosylation assay [2] = substrate: O=c1c(O)c(-c2ccc(O)cc2)oc2cc(O)cc(O)c12; test: HPLC glucosylation assay; assay type: biochemical, Lotus japonicus
Description: as §1

`O=c1c(O)c(-c2ccc(O)c(O)c2)oc2cc(O)cc(O)c12` [quercetin] was tested, and the Km (UGT72AD1) was 310 µM.

For `O=c1c(O)c(-c2cc(O)c(O)c(O)c2)oc2cc(O)cc(O)c12` [myricetin], the Km (UGT72AD1) was 390 µM.

In the case of `O=c1c(O)c(-c2ccc(O)cc2)oc2cc(O)cc(O)c12` [kaempferol], the Km (UGT72AD1) is reported as 330 µM.

B1: UGT72Z2 (Lotus japonicus) (protein)
chain: MAKTIHIAAVSIPAFSHQASIIEFCKKLLHLHHHYHVTCIFPTIDAPVAATLKLLQSLPSTIDFKFLPPVNKQDLPQDVSPAVQIQLAVSQSMPSFRDTMRSLHSTTPHLTALIADPFANEALEIGKEFNLLSYIYFPPSAMTLSLFLHLPKLHEEVSCEYRDLTEPIQIPGCIPIQGQDLPEHFQDRSSLAYDLILKRCKRFSLADGFLVNSFLELEEGTVKALQEQNRGNRGENRGNRGKNRGNRDSPVFLVGPVIQTGPSSEPKGSESEYCVRWLENQIPKSVLYVSFGSGGTLSQEQMNELAFGLELSGQKFLWVVRAPSDSANAAYLGVGNEDPLKFLPSGFIERTKGQGLVIPSWAPQTQILSHSSIGGFLTHCGWNSVLESIVLGVPMITWPLFAEQRMNAVLLTDGVKVALRPKFDENGIVKREEIAVVVKGLMQGEEGNGIHHRIEVLKEAAADALKEDGSSTRALSQFGNQIENFLALK
notes: full-length ORF cloned from leaf cDNA; MBP fusion (pMAL-c2x), E. coli Novablue, maltose-resin purified
B1 gave a Km (purified protein) of 46 µM, a Km (HPLC glucosylation assay [1]) of 68 µM and a Km (HPLC glucosylation assay [2]) of 40 µM.
